# Experimental data reported in patent publication US20100292229A1, “TRYPHOSTIN-ANALOGS FOR THE TREATMENT OF CELL PROLIFERATIVE DISEASES” (The Board of Regents of the University of Texas System, priority 2006, published 2010).
# Key:
# w/t BCR-ABL = molecular target: T1, w/t BCR-ABL (Homo sapiens, UniProt P00519); test: pBCR-ABL and BCR-ABL immunoblot in BV-173 cells; assay type: cell-based; design: dose or concentration left out as unconfirmed; settings: 1 h
# T1 construct: BV-173, a lymphoid CML cell line expressing w/t BCR-ABL; endogenous in cells; host or cells: BV-173; the other entry of the earlier key: BCR (P11274, Breakpoint cluster region protein)
# Protocol: Actin was probed as protein loading control.
# Western Blot analysis. […] Western blotting was performed using specific primary antibodies Peroxidase-conjugated affiniPure anti-Mouse Anti-Rabbit secondary antibodies (Jackson Immunoresearch Laboratories, West Grove, Pa.). The proteins were visualized with ECL Plus reagents (Amersham Biosciences).
# HA-tagged c-myc = molecular target: T2, HA-tagged c-myc (Homo sapiens, UniProt P01106); test: HA-tagged c-myc stability in transfected HeLa cells; assay type: cell-based; settings: 1 h treatment
# T2 construct: labeled at the termini as 1 and 439; expressed in transfected cells; host or cells: HeLa
# Protocol: Bottom: Expression vectors for HA-tagged c-myc or HA-tagged IKKγ (tagged at the N-terminus) were transfected (at the DNA content indicated) into HeLa cells as described in the methods section above. Twenty-four h later, cells were treated with Degrasyn for 1 h before harvesting cells, extracting protein and subjecting equal protein lysates to immunoblotting for c-myc (left) or IKKγ (right) using an HA-directed antibody. Actin was immunoblotted as a control for protein loading. […] These cells and transfection system were used to map the domains important for Degrasyn mediated destabilization by deletion analysis (FIG. 20).
# Analysis of wild-type and mutant (deleted) c-myc protein stability. A c-myc expression vector (pCGN-MYC) was obtained from Dr. William Tansey (Cold Springs Harbor, N.Y.) and initially used to transfect HeLa cancer cells (with the SN2 cationic lipid). In subsequent studies, the c-myc gene was subcloned downstream of the HA antigen in the pcDNA3.1 vector, allowing efficient detection of transfected c-myc by anti-HA immunoblotting. Multiple site-specific mutations and domain deletions were introduced into the c-myc gene using the Stratagene Quickchange II XL kit and specific dual primer sets. The deletions/mutations were verified by direct sequencing before use. […]
# T1 sequence (P00519 with tags, fused parts or gaps): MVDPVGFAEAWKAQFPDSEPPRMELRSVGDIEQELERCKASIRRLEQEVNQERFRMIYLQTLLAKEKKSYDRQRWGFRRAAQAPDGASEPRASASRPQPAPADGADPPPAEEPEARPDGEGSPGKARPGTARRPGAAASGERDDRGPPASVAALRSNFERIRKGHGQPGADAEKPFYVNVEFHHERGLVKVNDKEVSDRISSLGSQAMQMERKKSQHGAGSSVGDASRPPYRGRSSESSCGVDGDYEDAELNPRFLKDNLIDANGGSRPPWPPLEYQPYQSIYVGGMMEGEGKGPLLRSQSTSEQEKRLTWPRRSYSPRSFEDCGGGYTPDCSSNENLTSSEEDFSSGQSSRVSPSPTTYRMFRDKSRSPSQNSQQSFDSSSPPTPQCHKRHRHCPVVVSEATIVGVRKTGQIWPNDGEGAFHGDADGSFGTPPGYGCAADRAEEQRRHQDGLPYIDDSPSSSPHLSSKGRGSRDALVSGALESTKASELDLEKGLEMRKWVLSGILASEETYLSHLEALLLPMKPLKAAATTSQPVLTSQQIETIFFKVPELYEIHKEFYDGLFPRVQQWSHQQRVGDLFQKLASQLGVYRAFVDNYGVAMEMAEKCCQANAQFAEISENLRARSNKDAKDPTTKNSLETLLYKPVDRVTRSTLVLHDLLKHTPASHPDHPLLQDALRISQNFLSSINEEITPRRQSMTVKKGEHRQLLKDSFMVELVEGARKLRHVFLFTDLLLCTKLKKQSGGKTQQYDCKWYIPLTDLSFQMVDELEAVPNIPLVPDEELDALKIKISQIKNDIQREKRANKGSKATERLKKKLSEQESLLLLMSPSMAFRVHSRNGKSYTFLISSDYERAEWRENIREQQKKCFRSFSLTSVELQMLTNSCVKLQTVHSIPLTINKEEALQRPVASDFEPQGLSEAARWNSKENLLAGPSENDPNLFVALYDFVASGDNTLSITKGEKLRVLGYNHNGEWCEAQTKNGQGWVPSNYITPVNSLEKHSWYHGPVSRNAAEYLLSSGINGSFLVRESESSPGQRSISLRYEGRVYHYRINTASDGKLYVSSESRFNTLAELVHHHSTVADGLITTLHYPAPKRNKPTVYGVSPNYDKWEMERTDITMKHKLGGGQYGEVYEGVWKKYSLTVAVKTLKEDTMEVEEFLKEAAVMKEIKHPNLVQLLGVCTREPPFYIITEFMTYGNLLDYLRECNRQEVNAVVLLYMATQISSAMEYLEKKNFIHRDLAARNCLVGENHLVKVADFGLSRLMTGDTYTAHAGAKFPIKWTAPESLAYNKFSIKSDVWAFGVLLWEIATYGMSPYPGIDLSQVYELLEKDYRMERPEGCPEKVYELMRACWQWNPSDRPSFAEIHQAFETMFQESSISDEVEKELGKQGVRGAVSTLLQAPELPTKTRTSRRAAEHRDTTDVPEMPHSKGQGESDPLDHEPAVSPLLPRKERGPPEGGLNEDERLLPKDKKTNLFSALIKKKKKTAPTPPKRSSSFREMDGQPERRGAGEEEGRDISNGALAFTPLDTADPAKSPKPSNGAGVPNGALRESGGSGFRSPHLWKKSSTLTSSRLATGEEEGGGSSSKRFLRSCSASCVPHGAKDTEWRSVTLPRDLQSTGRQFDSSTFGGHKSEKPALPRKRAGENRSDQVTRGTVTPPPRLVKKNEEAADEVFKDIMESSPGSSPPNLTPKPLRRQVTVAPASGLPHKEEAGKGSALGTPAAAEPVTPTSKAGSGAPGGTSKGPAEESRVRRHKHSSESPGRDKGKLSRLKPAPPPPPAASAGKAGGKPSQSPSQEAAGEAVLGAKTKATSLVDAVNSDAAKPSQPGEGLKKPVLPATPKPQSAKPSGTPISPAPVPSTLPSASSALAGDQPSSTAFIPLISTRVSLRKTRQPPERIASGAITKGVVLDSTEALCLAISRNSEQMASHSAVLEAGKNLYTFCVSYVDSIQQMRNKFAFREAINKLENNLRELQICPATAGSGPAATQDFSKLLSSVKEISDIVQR
# T2 sequence (P01106 16-454): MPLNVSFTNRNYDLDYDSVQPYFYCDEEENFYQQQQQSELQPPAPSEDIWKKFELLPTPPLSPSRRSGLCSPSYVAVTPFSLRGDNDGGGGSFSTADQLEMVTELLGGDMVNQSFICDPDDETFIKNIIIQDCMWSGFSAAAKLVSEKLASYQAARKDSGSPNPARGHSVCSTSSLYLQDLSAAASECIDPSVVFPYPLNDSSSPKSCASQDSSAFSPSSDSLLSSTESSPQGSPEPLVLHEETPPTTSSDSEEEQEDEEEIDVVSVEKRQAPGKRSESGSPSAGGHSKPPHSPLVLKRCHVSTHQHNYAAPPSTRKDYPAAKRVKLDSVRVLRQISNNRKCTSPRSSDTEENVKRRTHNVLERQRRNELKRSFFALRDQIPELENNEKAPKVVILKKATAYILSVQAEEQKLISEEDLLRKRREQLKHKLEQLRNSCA
smiles,measurement,setting,value
CCC[C@H](NC(=O)/C(C#N)=C/c1cccc(Br)n1)c1ccccc1 [Degrasyn],"pBCR-ABL and BCR-ABL protein levels, BV-173",w/t BCR-ABL,reduced BCR-ABL protein levels in both w/t and mutant BCR-ABL expressing cells
same,HA-tagged c-myc and HA-tagged IKKγ levels,HA-tagged c-myc,reduced HA-tagged c-myc but did not affect HA-tagged IKKγ
